Series [1] relates to antifluorescein rabbit IgG. As to the kind of experiment: Steric protection: kinetics of fluorescein quenching by anti-fluorescein IgG. It counts as binding. Particulars: polymer chains positioned within 2 and 9 bases of fluorescein; 10-fold anti-fluorescein IgG, 20 mM PBS, pH=7.5. As for the experimental part:
To determine the degree of steric protection of the nucleotide core by polymer chains, a series of double-stranded oligonucleotides were synthesized. A model antigen (fluorescein) and a model protective chain (polyethyleneglycol) were positioned on the oligonucleotide at various distances. Then kinetics of fluorescein moiety interactions with fluorescence-quenching antifluorescein rabbit IgG (Molecular Probes, Oreg.) was determined to evaluate the degree of steric protection. The latter was investigated as a function of the distance between the antigen and the protective chain. Four 5′-amino modified oligonucleotides with the same sequence 5′-TTT-CTC-TCT-CTC-TCT-CTC-TCT-3′ (SEQ ID NO: 5) were obtained from a commercial source. […]
The resultant double-stranded oligonucleotides were purified by SEC HPLC and modified, through the 5′-aminogroup of the first strand, with N-hydroxysuccinimide ester of carboxy-polyethyleneglycol (MW=2 kDa and 20 kDa), and with N-hydroxysuccinimide ester of branched “PEG2” polyethyleneglycol (10 kDa). […] Fluorescein—antibody interaction was registered by quenching of the fluorescein fluorescence by the antibody. Fluorescence was registered at 515 nm (excitation at 490 nm). The kinetics of fluorescence quenching depended on the position of the fluorescein moiety relative to the polymer chain.

The conditions of series [2]: cited from earlier work.
Series [3] has as its system outbred mice. As to the kind of experiment: Adduct toxicity in vivo. Particulars: observed for 30 days. The protocol:
Adduct toxicity in vivo. […] Bis-intercalator content was one molecule per 6 base pairs of the nucleotide core. […] The adduct and free bis-intercalator were administered intravenously, as described above, into male outbred mice (30±2 g, n=4 per group) at 30 mg/kg by bis-intercalator. In a third group, unloaded carrier was injected at 100 mg/kg within 15 minutes after the administration of 30 mg/kg of bis-doxorubicin.

Series [4] in a line: Lyophilization and reconstitution in PBS with membrane filtration. It is filed as physicochemical. The settings on record: one milligram by doxorubicin in 0.1 ml of 50 mM PBS, pH=7. The protocol: The adducts obtained as described in Examples 2 and 3 were used in a lyophilized form. Doxorubicin powder (Sigma Chemical Co., St. Louis, Mo.) and lyophilized “Doxorubicin for injection” were used as control preparations. Each of the four preparations, in the amount of one milligram by doxorubicin, were suspended in 0.1 ml of a 50 mM PBS, pH=7. […] The resultant solutions oligonucleotide-doxorubicin adduct solutions were filtered through […] PTFE membrane filters; doxorubicin was recovered in the filtrates with at least 98% yield (by adsorption at 470 nm).

In series [5] the test system is human epithelial cells (kidney, line 293). The series is described as follows: Carrier and adduct toxicity in cell culture (Trypan Blue staining). It counts as cell-based. The settings on record: control experiment, confluent and growing cultures.
Protocol: Carrier toxicity in cell culture. Unloaded carriers (Example 7) were tested in near confluent culture of human epithelial cells (kidney, line 293, from ATCC #CRL 1573) in DMEM with 5% calf serum. Carriers were added to the cell culture at various concentrations, from 1 mg/ml to 1 mg/ml. Cell survival rate was determined by staining with Trypan Blue after a 16-hour incubation.
Adduct toxicity in cell culture. Doxorubicin-loaded carriers (Example 12) were tested in near confluent and growing cultures of human epithelial cells (kidney, line 293) in DMEM containing 5% calf serum. […] Cell survival rate was determined by staining with Trypan Blue after a 16-hour incubation.
The nature of series [6]: Doxorubicin biodistribution (14C tissue radioactivity). The settings on record: 0.3 mg/kg via tail vein, 20 hours after injection. It is filed as in vivo, mice. As for the experimental part: (^14C)doxorubicin-loaded carriers (Example 12) and free (^14C)doxorubicin (control) were injected into normal outbred mice (males, 30 g) via tail vein, at 0.3 mg/kg. Biodistribution was studied by measuring tissue radioactivity 20 hours after injection. Tissue samples were disintegrated, solubilized, mixed with a scintillation cocktail and counted on a scintillation counter.

Series [7] concerns outbred mice. The series is described as follows: Carrier toxicity in vivo. The settings on record: 100 mg/kg intravenously, observed for 30 days. An excerpt: Carrier toxicity in vivo.
A short description of series [8]: Carrier biokinetics (3H-labeled carriers, blood). The settings on record: 1 mg/kg via tail vein, mice. It counts as in vivo. The protocol: Unloaded carriers (Example 8) were labeled with tritium (^3H). Carriers were oxidized with periodate to produce aldehyde groups on the 3′-ribonucleotide base present in the structure, and reacted with [^3H] borohydride to introduce tritium into carrier core structure. Carriers were purified on Sephadex G-25 and injected at 1 mg/kg into normal outbred mice (males, 30 g) via tail vein. Blood samples were collected at different time points and counted. The blood half-lives were ca. 30 min and 10 hours for unprotected and PHF-protected carriers, respectively.

Series [9] is classed as physicochemical. The protocol: An oligonucleotide with arbitrarily chosen […] sequence, 5′CGTCGACGTCGAATATACGC (SEQ ID NO: 3), and a complementary 5′-amino modified oligonucleotide 5′GC GTA TAT TCG ACG TCG ACG (SEQ ID NO: 4) were purchased from a commercial vendor. To form a double stranded oligonucleotide, the single-stranded oligonucleotides were hybridized and lyophilized as described in Example 1. The resultant double stranded oligonucleotide was stable at ambient (25° C.) and body temperature (37° C.).

Details of series [10]: species or system mice. The settings on record: mouse, in vivo, iv. The protocol: An arbitrarily chosen 5-amino modified 18-base phosphodiester oligonucleotide 5° […] (SEQ ID NO: 11), 0.11 mg, was modified with trace amount of ethylenediaminetraacetic anhydride and hybridized with (a) a complementary oligonucleotide, 5′[…] (SEQ ID NO: 12), and (b) analogous complementary oligonucleotide amino modified at both 5′ and 3′ ends and at positions 4, 9 and 15 (from 5′). The hybridized amino modified DSO was incubated with 1 ml of 10 mg/ml solution of N-hydroxycuccinimido-polyethyleneglycol, MW=10 kDa, at pH=8 for 8 hours. The products, PEG-modified double stranded oligonucleotides, were isolated by HPLC. Both PEG-modified and unmodified double stranded oligonucleotides were labeled with 111 in 0.5 M citrate buffer solution, pH=5.6. Labeled preparations were purified by SEC HPLC. Each was divided into 4 equal doses and administered intravenously to outbred mice (n=4 in each group, male, 31±2 g). Blood samples were taken immediately after injection, then at 0.25, 0.5, 1, 2, 4 and 8 hours.

Like-named read-outs stand apart in the source and are kept apart here. d = 2'-deoxy (DNA); r = 2'-OH (RNA)

“2 kDa polymer: fluorescein-labeled double-stranded oligonucleotide (SEQ ID NO: 5/6) modified at 5′-amino group with 2 kDa polyethyleneglycol (chain 1 TTTCTCTCTCTCTCTCTCTCT; chain 2 AGAGAGAGAGAGAGAGAGAAAA; fluorescein, 2 kDa PEG, chemistry not fully specified)”: in [1], the “decrease of the kinetic constant of fluorescein-antibody interaction” value came to 20%.

As to “20 kDa polymer: fluorescein-labeled double-stranded oligonucleotide (SEQ ID NO: 5/6) modified at 5′-amino group with 20 kDa polyethyleneglycol (chain 1 TTTCTCTCTCTCTCTCTCTCT; chain 2 AGAGAGAGAGAGAGAGAGAAAA; 5'-amino linked 20 kDa PEG, fluorescein on an internal base, further chemistry not given here)”, the “decrease of the kinetic constant of fluorescein-antibody interaction” value in series [1] came to 80%.

In the case of `C[C@H](CNCCNC[C@@H](C)N1C(=O)c2cccc3cc([N+](=O)[O-])cc(c23)C1=O)N1C(=O)c2cccc3cc([N+](=O)[O-])cc(c23)C1=O` [DMP 840], the “solubility at physiological pH” value in series [2] is listed as “limited solubility”.

As to `COc1cccc2c1C(=O)c1c(O)c3c(c(O)c1C2=O)C[C@@](O)(C(C)=O)C[C@@H]3O[C@H]1C[C@H](NCc2ccc(CN[C@H]3C[C@H](O[C@H]4C[C@](O)(C(C)=O)Cc5c(O)c6c(c(O)c54)C(=O)c4c(OC)cccc4C6=O)O[C@@H](C)[C@H]3O)cc2)[C@H](O)[C@H](C)O1` [WP-631], the survival entry with outbred mice [3] (30 mg/kg bis-doxorubicin, then unloaded carrier 100 mg/kg within 15 minutes) was “all animals survived”; in the series on outbred mice [3] (30 mg/kg by bis-intercalator intravenously, n=4 per group) it was “only one animal survived”. Moreover, in series [2], the “solubility at physiological pH” value was “limited solubility”.

As to `COc1cccc2c1C(=O)c1c(O)c3c(c(O)c1C2=O)C[C@@](O)(C(=O)CO)C[C@@H]3O[C@H]1C[C@H](N)[C@H](O)[C@H](C)O1` [doxorubicin, Doxorubicin], the “dissolution on suspending the preparation” value in [4] was “formed suspensions”. Besides, in series [5], the “cytotoxic effects compared with doxorubicin-loaded carriers” value is “essentially the same cytotoxic effects”. Besides, in [6], the “label distribution to liver” value worked out at 3±0.6 % dose/g and the “label distribution to lung” value is 4.6±1.6 % dose/g. In addition, the “label content in skeletal muscle” value in series [6] (mean±standard deviation) is 2±0.4 % dose/g. Also, the “solubility at physiological pH” value in series [2] is on record as “limited solubility”.

For the compound “PHF-protected carriers: amino modified double-stranded oligonucleotide (SEQ ID NO: 9/8) conjugated with 10 kDa PHF (chain 1 ATGGCGCACGCTGGGAGAC; chain 2 TCTCCCAGCGTGCGCCATC; sugars from the 5' end d18 r1, backbone and methylation of C not given here; amino modifications at positions 1, 2, 12, 19 of first strand, PHF polymer conjugated)”, the signs of toxicity entry in the series with outbred mice [7] is recorded as “None of the animals showed signs of toxicity”. Moreover, the survival result with outbred mice [7] (n=6) is “All animals survived”. The blood half-life in series [8] was about 10 h.

For the compound “double stranded oligonucleotide: hybrid of 5′CGTCGACGTCGAATATACGC (SEQ ID NO: 3) and complementary 5′-amino modified SEQ ID NO: 4 (chain 1 CGTCGACGTCGAATATACGC; chain 2 GCGTATATTCGACGTCGACG; complementary strand carries 5'-amino modification, further chemistry not given here)”, the “stability of double stranded oligonucleotide” value in [9] is reported as “stable”.

Regarding “unmodified double stranded oligonucleotides: labeled SEQ ID NO: 11 hybridized with complementary SEQ ID NO: 12 (chain 1 CGTCGACGTCGAATATACGC; chain 2 GCGTATATTCGACGTCGACG; DNA, phosphodiester; one strand carries an unspecified label)”, the blood half-life in [10] amounted to 0.2 ± 0.083 h.

“unprotected carriers: double-stranded carrier from unmodified oligonucleotides SEQ ID NO: 7 and 8 (chain 1 ATGGCGCACGCTGGGAGA; chain 2 TCTCCCAGCGTGCGCCATC; chain 1: DNA, backbone and methylation of C not given here; chain 2: sugars from the 5' end d18 r1, all phosphodiester, methylation of C not given here)”: the blood half-life entry in [8] is on record as “ca. 30 min”.

Source of the values: patent US8247383B2, “Drug-carrier complexes and methods of use thereof” (The General Hospital Corporation, priority 1999, dated 2012).
